{"source": "patent US20060217418A1", "about": "“Substituted alkyl amido piperidines” (priority 2001, published 2006)", "key": {"Sprague Dawley rats": {"test_system": "Sprague Dawley rats", "experiment": "Continuous Slow Transvesicular Infusion (CSTI) rat model", "type": "in vivo", "design": "key: F: Produced an increase in bladder capacity in rats relative to baseline capacity", "settings": "intragastric administration, bladder capacity relative to baseline capacity", "experimental": "Male Sprague Dawley rats weighing approximately 300 g were used for the study. Rats were anaesthetized with pentobarbitone sodium (50 mg/kg, i.p). Through a median abdominal incision, bladder was exposed and a polyethylene cannula (PE 50) was introduced into the bladder through a small cut on the dome of the bladder and the cannula was secured with a purse string suture. The other end of the cannula was exteriorized subcutaneously at the dorsal neck area. Similarly, another cannula (PE 50) was introduced into the stomach through a paramedian abdominal incision with the free end exteriorized subcutaneously to the neck region. The surgical wounds were closed with silk 4-0 suture and the animal was allowed to recover with appropriate post surgical care. On the following day, the animal was placed in a rat restrainer. The open end of the bladder-cannula was connected to a pressure transducer as well as infusion pump through a three-way stopcock. The bladder voiding cycles were initiated by continuous infusion of normal saline at the rate of 100 μl/min. The repetitive voiding contractions were recorded on a Power Lab on-line data acquisition software. After recording the basal voiding pattern for an hour, the test drug or vehicle was administered directly into stomach through the intragastric catheter and the voiding cycles were monitored for 5 hours. Micturition pressure and frequency were calculated before and after the treatment (at every 30 min interval) for each animal. Bladder capacity was calculated from the micturition frequency, based on the constant infusion of 100 μl/min. The effect of the test drug was expressed as a percentage of basal, pre-drug bladder capacity. WAY 100635 was used as positive control for comparison."}, "rat MCH1 receptor": {"target": "T1, rat MCH1 receptor (Rattus norvegicus, UniProt P97639)", "T1 construct": "operatively linked to DNA encoding the rat MCH1 receptor so as to permit expression thereof; expressed in transfected cells; host or cells: Human embryonic kidney Peak rapid 293 (Peakr293) cells, transient calcium phosphate transfection, membranes", "T1 sequence (P97639 whole entry)": "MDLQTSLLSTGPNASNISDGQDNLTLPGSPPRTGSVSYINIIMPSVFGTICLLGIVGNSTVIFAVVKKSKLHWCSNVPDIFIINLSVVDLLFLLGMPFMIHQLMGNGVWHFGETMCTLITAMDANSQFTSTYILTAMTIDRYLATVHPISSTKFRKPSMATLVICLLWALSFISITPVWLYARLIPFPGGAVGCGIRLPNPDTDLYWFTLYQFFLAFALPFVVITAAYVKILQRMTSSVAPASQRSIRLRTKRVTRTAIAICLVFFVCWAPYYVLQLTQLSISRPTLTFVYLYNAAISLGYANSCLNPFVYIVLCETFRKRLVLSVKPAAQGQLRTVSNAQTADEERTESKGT", "experiment": "Radioligand binding assay at cloned rat MCH1 receptor ([3H]Compound A)", "settings": "cloned rat MCH1, Peakr293 cell membranes, 0.08 nM [3H]Compound A, 25° C., 90 minutes; read-out: Ki(MCH-1)"}, "[1]": {"settings": "in vivo; cited from earlier work"}}}
{"smiles": "CC(C)C(=O)Nc1ccc(F)c(C2CCN(CCCNC(=O)C(c3ccccc3)c3ccccc3)CC2)c1", "note": "[Example 24]", "values": [{"measurement": "CSTI", "setting": "Sprague Dawley rats", "value": "F"}, {"measurement": "Ki", "setting": "rat MCH1 receptor", "value": 4.7, "unit": "nM"}]}
{"smiles": "CC(C)C(=O)Nc1ccc(F)c(C2CCN(CCCNC(=O)C(c3ccc(F)cc3)c3ccc(F)cc3)CC2)c1", "note": "[Example 35, N-{3-[1-(3-{[bis(4-fluorophenyl)acetyl]amino}propyl)-4-piperidinyl]-4-fluorophenyl}-2-methylpropanamide]", "values": [{"measurement": "CSTI", "setting": "Sprague Dawley rats", "value": "F"}, {"measurement": "Ki", "setting": "rat MCH1 receptor", "value": 0.4, "unit": "nM"}]}
{"smiles": "CN(C)CC1CCc2cc(NC(=O)c3ccc(-c4ccc(F)cc4)cc3)ccc2C1", "note": "(centres unmarked) [Example T-226296]", "values": [{"measurement": "food intake induced by the intracerebroventricular application of MCH", "setting": "[1]", "value": "inhibit food intake"}]}
{"smiles": "CC(C)C(=O)Nc1cccc(C2CCN(CCCNC(=O)C(c3ccccc3)c3ccccc3)CC2)n1", "note": "[Example 6]", "values": [{"measurement": "CSTI", "setting": "Sprague Dawley rats", "value": "F"}, {"measurement": "Ki", "setting": "rat MCH1 receptor", "value": 5.6, "unit": "nM"}]}
{"smiles": "CC(C)C(=O)Nc1cccc(C2CCN(CCCNC(=O)C(C)(C)c3ccc(Cl)cc3)CC2)c1", "note": "[Example 8, 2-(4-CHLOROPHENYL)-N-(3-{4-[3-(ISOBUTYRYLAMINO)PHENYL]-1-PIPERIDINYL} PROPYL)-2-METHYLPROPANAMIDE]", "values": [{"measurement": "CSTI", "setting": "Sprague Dawley rats", "value": "F"}, {"measurement": "Ki", "setting": "rat MCH1 receptor", "value": 11.7, "unit": "nM"}]}
{"smiles": "CC(C)C(=O)Nc1cccc(C2CCN(CCCNC(=O)C(c3ccc(F)cc3)c3ccc(F)cc3)CC2)n1", "note": "[Example 29]", "values": [{"measurement": "CSTI", "setting": "Sprague Dawley rats", "value": "F"}, {"measurement": "Ki", "setting": "rat MCH1 receptor", "value": 2.3, "unit": "nM"}]}
{"smiles": "Cc1ccc(NC(=O)C(C)C)cc1C1CCN(CCCNC(=O)C(c2ccccc2)c2ccccc2)CC1", "note": "[Example 4]", "values": [{"measurement": "CSTI", "setting": "Sprague Dawley rats", "value": "F"}, {"measurement": "Ki", "setting": "rat MCH1 receptor", "value": 2.5, "unit": "nM"}]}
{"smiles": "CC(=O)Nc1cccc(C2CCN(CCCNC(=O)C(c3ccccc3)c3ccccc3)CC2)c1", "note": "[Example 3, N-(3-{4-[3-(acetylamino)phenyl]-piperidinyl}propyl)-2,2-diphenylacetamide]", "values": [{"measurement": "CSTI", "setting": "Sprague Dawley rats", "value": "F"}, {"measurement": "Ki", "setting": "rat MCH1 receptor", "value": 2.5, "unit": "nM"}]}
{"smiles": "CC(C)C(=O)Nc1cccc(C2CCN(CCCNC(=O)C(c3ccc(F)cc3)c3ccc(F)cc3)CC2)c1", "note": "[Example 1, N-{3-[1-(3-{[BIS(4-FLUOROPHENYL)ACETYL]AMINO}PROPYL)-4-PIPERIDINYL] PHENYL}-2-METHYLPROPANAMIDE]", "values": [{"measurement": "CSTI", "setting": "Sprague Dawley rats", "value": "F"}, {"measurement": "Ki", "setting": "rat MCH1 receptor", "value": 1.3, "unit": "nM"}]}
{"smiles": "Cc1ccc(NC(=O)C(C)C)cc1C1CCN(CCCNC(=O)C(c2ccc(F)cc2)c2ccc(F)cc2)CC1", "note": "[Example 32]", "values": [{"measurement": "CSTI", "setting": "Sprague Dawley rats", "value": "F"}, {"measurement": "Ki", "setting": "rat MCH1 receptor", "value": 0.6, "unit": "nM"}]}
{"smiles": "CCCC(=O)Nc1cccc(C2CCN(CCCNC(=O)C3(c4ccc(F)cc4)CCCC3)CC2)c1", "note": "[Example 101, N-(3-{4-[3-(BUTYRYLAMINO)PHENYL]-1-PIPERIDINYL}PROPYL)-1-(4-FLUOROPHENYL) CYCLOPENTANECARBOXAMIDE]", "values": [{"measurement": "Ki", "setting": "rat MCH1 receptor", "value": 11.2, "unit": "nM"}]}
